Several values for one entry are separate records, joined by “and”; a condition that tells them apart may be missing. Equal entries are not always repeated.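 Where inhibition never reached the appropriate level, the endpoint shown equals the highest concentration tested. Otherwise, values were interpolated linearly from a five-concentration, 48-hour dose response in 96-well plates. Abbreviation: GI50, concentration required for 50% inhibition of growth. TGI: total growth inhibition.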

Some test systems named below: MDA-N; DLD-1 colon; DMS 114 small cell lung; DMS 273 small cell lung; M19-MEL melanoma; XF 498 CNS; RXF-631 renal; SNB-78 CNS; HOP-18 NSCLC.
Experiment in all cases: growth of human tumour cells (NCI), 48 h

Turning to `O=C1OC(=O)c2c1cc1cc3c(cc1c2-c1ccc2c(c1)OCO2)OCO3`, the TGI in the test on MDA-N is > 100 µM.

In the test with MDA-N, `CN(C)Cc1c[nH]c2nc[nH]c(=O)c12` showed a TGI of 67.7 µM.

As to `O=S(=O)(c1ccccc1)C1(C2(S(=O)(=O)c3ccccc3)CCN=N2)CCN=N1` (stereo not drawn), the TGI in the test on DLD-1 colon, in the test on DMS 114 small cell lung, in the test on DMS 273 small cell lung, with M19-MEL melanoma and with XF 498 CNS was > 100 µM in each case.

As to `CCCOC(=O)C1C(c2ccc(OC)cc2)NC(c2ccc(OC)cc2)C(C(=O)OCCC)S1(=O)=O` (stereo not drawn), the GI50 in the test on DLD-1 colon, with DMS 114 small cell lung, in the test on DMS 273 small cell lung, with RXF-631 renal and in the test with SNB-78 CNS was > 100 µM throughout. Besides, the TGI in the test on DLD-1 colon, in the test with DMS 114 small cell lung, in the test with DMS 273 small cell lung, with RXF-631 renal and in the test on SNB-78 CNS was > 100 µM each time.

As to `O=c1oc2cc(O)ccc2cc1-c1nc2ccccc2o1`, in the test with MDA-N, the TGI is > 100 µM.

In the case of `COC(=O)C(C(=O)C(=O)Nc1nc2ccc(OC)cc2s1)c1cnc2ccccc2n1` (stereo not drawn), the TGI with DLD-1 colon, in the test on M19-MEL melanoma, with SNB-78 CNS and with XF 498 CNS was > 100 µM throughout.

As for `O=C1CC2=CCCC2O1` (stereo not drawn), the TGI in the test with DLD-1 colon, in the test on DMS 114 small cell lung, with DMS 273 small cell lung, with M19-MEL melanoma, in the test on SNB-78 CNS and in the test on XF 498 CNS was > 100 µM throughout.

Turning to `CC[P+](C)(C)CC`, the TGI in the test on DLD-1 colon, in the test with DMS 114 small cell lung, in the test with DMS 273 small cell lung, with HOP-18 NSCLC, with M19-MEL melanoma and with RXF-631 renal was > 100 µM throughout. The TGI in the test with SNB-78 CNS is > 100 µM.

With `Oc1ccc(Br)cc1C=Nc1ccc(Oc2ccc(N=Cc3cc(Br)ccc3O)cc2)cc1`, the TGI in the test with DLD-1 colon, in the test with DMS 114 small cell lung, in the test with DMS 273 small cell lung, in the test on HOP-18 NSCLC and in the test on M19-MEL melanoma was > 19.6 µM in each case.

Regarding `COc1ccc(C2=NC(CO)[C@H](c3ccccc3)O2)cc1OC` (stereo partly drawn), the TGI in the test on DLD-1 colon, in the test with DMS 114 small cell lung, with DMS 273 small cell lung, in the test with M19-MEL melanoma, with RXF-631 renal and with XF 498 CNS was > 100 µM in each case.

Consider `O=S(=O)([O-])c1ccc(C=Nc2ccccc2)c([O-])c1.O=S(=O)([O-])c1ccc(C=Nc2ccccc2)c([O-])c1.[Co+2]`, for which the GI50 with DLD-1 colon is 5.18 µM; in the test with DMS 114 small cell lung, > 100 µM; in the test on HOP-18 NSCLC it was 43.1 µM; in the test on M19-MEL melanoma, 78.7 µM; in the test on SNB-78 CNS it was 51.7 µM; in the test on XF 498 CNS it was 20.6 µM. In addition, the TGI with DLD-1 colon, in the test on DMS 114 small cell lung, with HOP-18 NSCLC, in the test on M19-MEL melanoma, in the test with SNB-78 CNS and in the test with XF 498 CNS was > 100 µM throughout.

With `O=C1c2ccccc2C(=O)N1CCN(CCN1C(=O)c2ccccc2C1=O)Cc1ccccc1`, the TGI with DLD-1 colon, with DMS 114 small cell lung, in the test on DMS 273 small cell lung, in the test with M19-MEL melanoma, in the test on SNB-78 CNS and in the test with XF 498 CNS was > 100 µM in each case.

For `CC(=O)OC1CCC2(C)C(=CCC3C2CCC2(C)C3CC3OC4(CCC(C)CN4)C(C)C32)C1` (stereo not drawn), in the test with MDA-N, the TGI was > 100 µM.

Take `COc1ccc(C)cc1-c1ccc(-c2cc(C)ccc2OC)o1`: the TGI with DLD-1 colon, with DMS 114 small cell lung, in the test with DMS 273 small cell lung, in the test with M19-MEL melanoma, with RXF-631 renal and in the test on SNB-78 CNS was > 100 µM in each case.

As for `COc1cc(Br)c(C=Nc2cccc3ccc(OS(=O)(=O)c4ccc([N+](=O)[O-])cc4)cc23)cc1OC`, the TGI in the test on DLD-1 colon, in the test on DMS 114 small cell lung, in the test on M19-MEL melanoma and in the test on SNB-78 CNS was > 100 µM throughout.

Regarding `O=C1C=C(c2ccccc2)NC1(c1ccccc1)c1cc(-c2ccccc2)[nH]c1-c1ccccc1` (stereo not drawn), the TGI with DLD-1 colon, with DMS 114 small cell lung, in the test on DMS 273 small cell lung, in the test on HOP-18 NSCLC, in the test with M19-MEL melanoma and in the test on RXF-631 renal was > 100 µM each time. In addition, the TGI in the test with SNB-78 CNS was > 100 µM.

Take `CCN(CC)CCNc1ccc2nc(C)n3c4ccc(OC)cc4c(=O)c1c23`: the TGI with DLD-1 colon amounted to 10.9 µM; in the test on DMS 114 small cell lung, 14.6 µM; with DMS 273 small cell lung, 11.5 µM; with M19-MEL melanoma it was 19.5 µM; in the test with MDA-N it was 17.2 µM.

Regarding `NC(=O)c1c(-c2ccccc2)c(-c2ccccc2)cc2c(=O)c3ccccc3[nH]c12`, the TGI was > 100 µM in the test on DLD-1 colon; 56.8 µM in the test with DMS 114 small cell lung; 46.6 µM in the test on DMS 273 small cell lung; 79.3 µM with M19-MEL melanoma; 87.1 µM in the test with RXF-631 renal; 54.1 µM in the test with SNB-78 CNS. The molecule also came in with a TGI in the test on XF 498 CNS of 36.6 µM.

In the case of `Cc1ccc(S(=O)(=O)NC(=O)Nc2ncn[nH]2)cc1`, the TGI in the test with MDA-N is > 100 µM.

As for `CC12CC(Br)(Br)C(=O)C3C1CCCC32`, the TGI in the test with DLD-1 colon is 13.6 µM; with DMS 114 small cell lung, 16.2 µM; in the test on DMS 273 small cell lung, 18.2 µM; in the test with HOP-18 NSCLC, 22.6 µM; in the test on M19-MEL melanoma it was 22.8 µM; in the test on MDA-N, 9.66 µM. For the same molecule, the TGI in the test with SNB-78 CNS was found to be 44.8 µM; in the test on XF 498 CNS, 21 µM.

In the test with MDA-N, `CN(COC(=O)C(C)(C)C)c1nc(N(C)COC(=O)C(C)(C)C)nc(N(C)COC(=O)C(C)(C)C)n1` gave a TGI of 80.3 µM.

As to `COc1ccc(-c2cc(-c3ccco3)c(C#N)c(=O)n2C2OC(COC(C)=O)C(OC(C)=O)C(OC(C)=O)C2OC(C)=O)cc1` (stereo not drawn), the TGI in the test with DLD-1 colon was > 100 µM; with DMS 114 small cell lung it was > 100 µM; with DMS 273 small cell lung, > 100 µM; in the test on HOP-18 NSCLC it was > 100 µM and 64.2 µM; in the test on M19-MEL melanoma, > 100 µM; in the test on RXF-631 renal, > 100 µM and 46.5 µM. Further, in the test on SNB-78 CNS, the TGI was > 100 µM. Further, the GI50 in the test with DMS 114 small cell lung was > 100 µM and 21.6 µM; with RXF-631 renal, > 100 µM and 14.3 µM.

As to `COC(=O)N1C=CC2=C(C)C3Nc4ccccc4C3C(C)=C2C1` (stereo not drawn), the TGI in the test on DLD-1 colon is 19.8 µM; in the test with DMS 114 small cell lung, > 100 µM; in the test with DMS 273 small cell lung it was 11.7 µM; in the test on M19-MEL melanoma, > 100 µM; with SNB-78 CNS it was 3.66 µM; with XF 498 CNS, 7.87 µM.

On to `C[C@H]1CCC/C=C/[C@@H]2C[C@H](O)C[C@H]2[C@H](O)C(O)C(O)C(=O)O1` (stereo partly drawn), for which, in the test on MDA-N, the GI50 is 4.53 µM and the TGI was > 100 µM.

Take `CC(C)C[C@H](NC(=O)[C@@H](N)Cc1cccc2ccccc12)B(O)O`: the GI50 in the test on MDA-N was < 0.01 µM.

Regarding `CN(C)Cc1nsc(N(C)C)n1`, the TGI in the test on MDA-N was > 100 µM.

On to `N/N=C1\C(=O)N(c2ccc(Cl)c(Cl)c2)C(=O)C1C(=O)Nc1ccc(Cl)c(Cl)c1` (stereo not drawn), for which the TGI with DLD-1 colon is > 100 µM; in the test on DMS 114 small cell lung, > 100 µM; in the test on HOP-18 NSCLC, > 100 µM; in the test on M19-MEL melanoma it was > 100 µM; in the test on RXF-631 renal, > 100 µM; with SNB-78 CNS, 79.5 µM.

For `CN(C)c1ccc(-c2nc(N)nc3c2CCCC3)cc1`, the TGI in the test with DLD-1 colon is > 100 µM; in the test with DMS 114 small cell lung, > 100 µM; in the test on DMS 273 small cell lung it was > 100 µM; with M19-MEL melanoma it was > 100 µM; in the test with SNB-78 CNS, > 100 µM; with XF 498 CNS it was 60.5 µM.

As to `CC(C)OC(=O)NNc1c(Cl)cc(Cl)cc1Cl`, the TGI in the test on MDA-N is > 100 µM.

With `CCOC(=O)C(c1ccsc1)P(=O)(OCC)OCC` (stereo not drawn), the TGI in the test on DLD-1 colon is 44.9 µM; in the test on DMS 114 small cell lung, 29 µM; with DMS 273 small cell lung it was 26.8 µM; with HOP-18 NSCLC, 43.8 µM; in the test with M19-MEL melanoma, 25.7 µM; with SNB-78 CNS, 76.9 µM. The TGI in the test on XF 498 CNS was 38.4 µM.

With `Cc1ncc2c(n1)CCC1=C2OS(=O)(=O)CC1N(C)C` (stereo not drawn), the TGI with MDA-N is > 100 µM.

For the molecule `O=C(O)CC(CC(=O)O)n1cccc1`, in the test on MDA-N, the TGI is > 100 µM.

As to `CC1=C(C(=O)Nc2cc(F)c(F)cc2F)C(c2ccc(N(C)C)cc2)C(C(=O)Nc2cc(F)c(F)cc2F)=C(C)N1`, the TGI was > 100 µM in the test on DLD-1 colon; 62.8 µM in the test with DMS 114 small cell lung; > 100 µM in the test with DMS 273 small cell lung; > 100 µM in the test on M19-MEL melanoma; 86.2 µM in the test with RXF-631 renal; 65.4 µM with SNB-78 CNS.

As to `Cc1ccc(C)c(NC(=O)C(=O)C(C2C(C)CC(=O)C2CC(=O)O)[N+](=O)[O-])c1` (stereo not drawn), the TGI in the test with DLD-1 colon, in the test with DMS 114 small cell lung, in the test on M19-MEL melanoma, with RXF-631 renal, with SNB-78 CNS and with XF 498 CNS was > 100 µM in each case.

As to `CC1(C)CCOC(Sc2ccccc2)C1` (stereo not drawn), the TGI in the test on DLD-1 colon, in the test with DMS 114 small cell lung, in the test on DMS 273 small cell lung, in the test on M19-MEL melanoma, in the test on SNB-78 CNS and in the test on XF 498 CNS was > 100 µM each time.

For the origin of these results see PubChem BioAssay (NCI).
